Measured values published in patent US10576056B2, “Compounds for treating cancer and methods of use thereof” (MCMASTER UNIVERSITY, priority 2015, dated 2020).
Like-named read-outs stand apart in the source and are kept apart here. Values belong to the compound of their own block, whether it stands above or below them.

Tests used:
Assay type in all cases: cell-based
MD-MB-231 cells = assay: MTT proliferation assay, MD-MB-231 breast cancer cells; conditions: for effect on proliferation of MD-MB-231 cells: increasing concentrations, 24 and 48 hours, 10% charcoal-stripped phenol-free serum, dose dependent
Method: (§1) First, the role of THs on breast cancer cell proliferation was evaluated using escalating doses of tri-iodothyronine (T3) and thyroxine (T4). […] In particular, the compound of Formula (I) or compound of Formula (Ia) is dronedarone. Dronedarone was selected as it is an FDA approved anti-arrhythmic drug.
(§2) The effect of increasing concentrations of T3 and T4 on the proliferation of 3 breast cancer cell lines (MCF 7, MD-MB-231, BT-474) in 10% charcoal-stripped phenol-free serum was evaluated at 24 and 48 hours following standard MTT-assay protocols. Increasing doses of PTU and dronedarone were added to cells with 200 μM T3 or T4 to measure proliferation of MCF-7 and MD-MB-231 cells using MTT assays.

MCF7 cells = assay: MTT proliferation assay, MCF7 breast cancer cells; conditions: for IC50: Homo sapiens; for IC50 / effect on proliferation: MCF7 cells; for effect on proliferation of MCF7 cells: increasing concentrations, 24 and 48 hours, 10% charcoal-stripped phenol-free serum, dose dependent
Method: as §1, §2

BT-474 cells = assay: MTT proliferation assay, BT-474 breast cancer cells; conditions: increasing concentrations, 24 and 48 hours, 10% charcoal-stripped phenol-free serum, dose dependent
Method: as §1, §2

IC50 (MD-MB-231 cells; Homo sapiens, PTU alone, without T3/T4 (FIG. 11: MDA-MB-231 cells, 24 hours), read-out: concentration reducing cell proliferation by 50%): > 12 µM | IC50 (MD-MB-231 cells; MD-MB-231 cells, in the presence of T3 (FIG. 10), read-out: IC50 (proliferation)): 12 µM | IC50 (MD-MB-231 cells; MD-MB-231 cells, in the presence of T4 (FIG. 10), read-out: concentration reducing proliferation by 50%): ~5 µM | IC50 (MCF7 cells; in the presence of T3 (FIG. 10), read-out: IC50 (proliferation)): 12 µM | IC50 (MCF7 cells; in the presence of T4 (FIG. 10), read-out: concentration reducing proliferation by 50%): ~5 µM
SMILES: CCCc1cc(=O)[nH]c(=S)[nH]1 [PTU, propylthiouracil]

SMILES: N[C@@H](Cc1cc(I)c(Oc2ccc(O)c(I)c2)c(I)c1)C(=O)O [T3, tri-iodothyronine]
effect on proliferation of MD-MB-231 cells (MD-MB-231 cells): statistically significant increase | effect on proliferation of MCF7 cells (MCF7 cells): statistically significant increase | effect on proliferation of BT-474 cells (BT-474 cells): statistically significant increase

SMILES: N[C@@H](Cc1cc(I)c(Oc2cc(I)c(O)c(I)c2)c(I)c1)C(=O)O [T4, thyroxine]
effect on proliferation of MD-MB-231 cells (MD-MB-231 cells): statistically significant increase | effect on proliferation of MCF7 cells (MCF7 cells): statistically significant increase | effect on proliferation of BT-474 cells (BT-474 cells): statistically significant increase

SMILES: CCCCc1oc2ccc(NS(C)(=O)=O)cc2c1C(=O)c1ccc(OCCCN(CCCC)CCCC)cc1 [dronedarone]
effect on proliferation (MD-MB-231 cells; MD-MB-231 cells, 10 μM dronedarone in combination with T3): significantly reduced proliferation | effect on proliferation (MD-MB-231 cells; MD-MB-231 cells, 10 μM dronedarone in combination with T4): significantly reduced proliferation | effect on cell proliferation (MD-MB-231 cells; dronedarone alone, without T3/T4 (FIG. 13: MDA-MB-231 cells, 24 hours)): not affected | effect on proliferation (MCF7 cells; 10 μM dronedarone in combination with T3): significantly reduced proliferation | effect on proliferation (MCF7 cells; 10 μM dronedarone in combination with T4): significantly reduced proliferation
